Here are results for 1 compound from US7642261B2, “Use of 1-[4-(5-cyanoindol-3-yl)butyl]-4-(2-carbamoyl-benzofuran-5-yl)-piperazine and its physiologically acceptable salts” (Merck Patent GmbH, priority 2002, dated 2010).

Type in all cases: in vivo
Series [1] relates to rats. As to the kind of experiment: Social Interaction Test (model for social phobia). Particulars: pairs of unfamiliar rats, oral dose of 10 mg/kg, 300 sec total time; vehicle 116 sec. The method, then: A model for social phobia is the Social Interaction Test according to S. File, J. R. G Hyde, J. Pharm. Pharmacol. 1977, 29: 735-738. Pairs of rats not familiar with each other are placed in an open test box brightly lit (aversive condition), and the number and duration of social contacts during a 5 min test session are recorded.
1-[4-(5-cyanoindol-3-yl)butyl]-4-(2-carbamoyl-benzofuran-5-yl)-piperazine or one of its physiologically acceptable salts, in particular 1-[4-(5-cyanoindol-3-yl)butyl]-4-(2-carbamoyl-benzofuran-5-yl)-piperazine hydrochloride, increase the time spent in social interaction. For example, for an oral dose of 10 mg/kg of 1-[4-(5-cyanoindol-3-yl)butyl]-4-(2-carbamoyl-benzofuran-5-yl)-piperazine hydrochloride the pairs of rats unfamiliar to each other spend 144 sec of the 300 sec of total time with social interaction compared to 116 sec for the vehicle treated pairs of rats.

Series [2] relates to rats. As for the experimental part: A typical animal model is the drug discrimination procedure in rats using cocaine as the stimulus cue (e.g. D. M. Wood and M. W. Emmett-Oglesby, J. Pharmacol. Exp. Ther., 1986; 237: 120-125; D. Huang and M. C. Wilson, Pharmacol. Biochem. Behav., 1986; 24: 205-210; J. M. Witkin at al., J. Pharmacol. Exp. Ther, 1991; 257: 706-713). Rats are trained to discriminate 10 mg/kg cocaine from saline in a two-lever discrimination procedure. Compounds which substitute for cocaine produce a dose-dependent increase in cocaine-appropriate responding, i.e. in selecting the cocaine-paired lever.
1-[4-(5-cyanoindol-3-yl)butyl]-4-(2-carbamoyl-benzofuran-5-yl)-piperazine or one of its physiologically acceptable salts, in particular 1-[4-(5-cyanoindol-3-yl)butyl]-4-(2-carbamoyl-benzofuran-5-yl)-piperazine hydrochloride, dose-dependently but only partially substituted for cocaine (maximally 60% choise of cocaine-paired lever at 50 mg/kg p.o.).

Series [3] in a line: Abdominal constriction (writhing) test. Conditions: 30 mg/kg p.c. The method, then: Rapid procedures to test pain-relieving properties of drugs are the abdominal constriction (writhing) test according to E. Siegmund et all., Proc. Soc. Exp. Biol. Med. 1957, 95: 729-731 and the intradermal formalin test according to S. Hunskaar et al., J. Neurosci. Meth. 1985, 14: 69-76. For example, 1-[4-(5-cyanoindol-3-y1)butyl]-4-(2-carbamoyl-benzofuran-5-yl)-piperazine hydrochloride at 30 mg/kg p.c. reduced abdominal contrictions by 82%, and 10 mg/kg p.o. reduced the formalin-induced pain response by 79%.
For orientation: Writhing tests count abdominal constrictions after an irritant is injected.

For `Cl.N#Cc1ccc2[nH]cc(CCCCN3CCN(c4ccc5oc(C(N)=O)cc5c4)CC3)c2c1` [1-[4-(5-cyanoindol-3-yl)butyl]-4-(2-carbamoyl-benzofuran-5-yl)-piperazine hydrochloride], in the series with rats [1], the “time spent in social interaction” value turned out to be 144 s. The “stimulus drug property by itself (abuse potential)” value in the series on rats [2] (rat, in vivo) is recorded as “does not serve as a stimulus drug by itself”. In addition, in the series with rats [2] (rats trained on 10 mg/kg cocaine vs saline, 50 mg/kg p.o.), the “maximal choice of cocaine-paired lever (partial substitution for cocaine)” value is given as 60%. The “reduction of abdominal constrictions” value in series [3] came out at 82%.
